From patent publication US20090239846A1, “Novel Compounds” (Glaxo Group Limited, priority 2005, published 2009)
Counter-ions that a name gives are not always drawn. Like-named read-outs stand apart in the source and are kept apart here.

Key:
Recombinant human p38α = molecular target: T1, Recombinant human p38α (Homo sapiens, UniProt Q16539); experiment: Fluorescence anisotropy kinase binding assay (standard or low volume); conditions: for active in the assay (pIC50, p38α binding): 12 nM p38α, 5 nM fluorescent ligand
T1 construct: GST; made in house
Source text: (§1) The concentration of kinase enzyme should preferably be >2×Kf. The concentration of fluorescent ligand required will depend on the instrumentation used, and the fluorescent and physicochemical properties. The concentration used must be lower than the concentration of kinase enzyme, and preferably less than half the kinase enzyme concentration.
The fluorescent ligand is the following compound:
[drawing 329] • which is derived from 5-[2-(4-aminomethylphenyl)-5-pyridin-4-yl-1H-imidazol-4-yl]-2-chlorophenol and rhodamine green. Recombinant human p38α was expressed as a GST-tagged protein. To activate this protein, 3.5 μM unactivated p38α was incubated in 50 mM Tris-HCl pH 7.5, 0.1 mM EGTA, 0.1% 2-mercaptoethanol, 0.1 mM sodium vanadate, 10 mM MgAc, 0.1 mM ATP with 200 nM MBP-MKK6 DD at 30 degrees for 30 mins. Following activation p38α was re-purified and the activity assessed using a standard filter-binding assay. Protocol: All components are dissolved in buffer of composition 62.5 mM HEPES, pH 7.5, 1.25 mM CHAPS, 1 mM DTT, 12.5 mM MgCl2 with final concentrations of 12 nM p38α and 5 nM fluorescent ligand. 30 μl of this reaction mixture is added to wells containing 1 μl of various concentrations of test compound (0.28 nM-16.6 μM final) or DMSO vehicle (3% final) in NUNC 384 well black microtitre plate and equilibrated for 30-60 mins at room temperature. Fluorescence anisotropy is read in Molecular Devices Acquest (excitation 485 nm/emission 535 nm). Definitions: Ki=dissociation constant for inhibitor binding • Kf=dissociation constant for fluorescent ligand binding
as §1, with “2×Kf.” for “>2×Kf.”, “concentration. The fluorescent ligand is the following compound:” for “concentration.”
which is derived from 5-[2-(4-aminomethylphenyl)-5-pyridin-4-yl-1H-imidazol-4-yl]-2-chlorophenol and rhodamine green. Recombinant human p38α was expressed as a GST-tagged protein. To activate this protein, 3.5 μM unactivated p38α was incubated in 50 mM Tris-HCl pH 7.5, 0.1 mM EGTA, 0.1% 2-mercaptoethanol, 0.1 mM sodium vanadate, 10 mM MgAc, 0.1 mM ATP with 200 nM MBP-MKK6 DD at 30 degrees for 30 mins. Following activation p38α was re-purified and the activity assessed using a standard filter-binding assay. Protocol: All components are dissolved in buffer of composition 62.5 mM HEPES, pH 7.5, 1.25 mM CHAPS, 1 mM DTT, 12.5 mM MgCl2 with final concentrations of 12 nM p38α and 5 nM fluorescent ligand. […] of this reaction mixture is added to wells containing 0.1 μl of various concentrations of test compound (0.02 nM-25 μM final) or DMSO vehicle (1.7% final) in Greiner low volume 384 well black microtitre plate and equilibrated for 30-60 mins at room temperature. Fluorescence anisotropy is read in Molecular Devices Acquest (excitation 485 nm/emission 535 nm). Definitions: Ki dissociation constant for inhibitor binding • Kf=dissociation constant for fluorescent ligand binding It is noted that there are two assay formats shown above for the Fluorescence anisotropy kinase binding assay. The only difference between these two assays is the volume used and the plate type. […] The results described herein may have been performed in either assay format and are not differentiated as to which.

[1] = system: IL-8 production by human neutrophils; experiment: TNF-stimulated IL-8 production from human neutrophils; type: cell-based; conditions: Neutrophil
Protocol: TNF-Stimulated IL-8 Production from Human Neutrophils The effect of test compounds on TNF-stimulated IL8 production by human neutrophils is measured as follows. Neutrophils are prepared from blood obtained from consenting donors, using standard methods. Blood is collected in heparinized syringes and layered over histopaque (30 ml/20 ml). Following centrifugation, the red cell pellet is resuspended in PBS and purified over a dextran gradient. Red blood cells are lysed with water for 40 sec, remaining granulocytes collected by centrifugation and resuspended at 1.5×10̂6 cells/ml. Cells are added (0.5-1 ml) to 48 well plates already containing compound at 1000×final concentration in neat DMSO or 10% DMSO in RPMI1640 with 10% FBS. TNF (final concentration 100 ng/ml) is used as the stimulus. Cells incubated for approximately 20 hrs at 37° C., 5% CO2. Levels of IL-8 in the cell free supernatant are determined by sandwich ELISA, and inhibition relative to a control with DMPO but no compound is calculated.

[2] = system: influx of neutrophils to the lung in LPS-challenged rats; experiment: Rat LPS neutrophilia model; type: in vivo; conditions: LPS aerosol, lavage 4 hours later, in at least one of the range of conditions tested, significance p<0.05
Method in brief: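 Rats pretreated 15 min–24 h with compound or vehicle, given intratracheally (200 ul, isoflurane anaesthesia) as suspension in various vehicles, then exposed to LPS aerosol (100 ug/ml) 15 min. BAL 4 h later; Diffquick-stained differential counts give % inhibition of neutrophils versus no-compound controls at a set concentration and pretreatment time.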

[3] = second end given as 'less than', read-out: pIC50, broad range of data upon multiple runs (converted)
[4] = bound, not more than 50% inhibition at 100 nM, read-out: IC50
[5] = bound, read-out: apparent pIC50 (converted)
[6] = ends given as 'less than' / 'greater than', read-out: IC50, broad range of data upon multiple runs

T1 sequence (Q16539 whole entry): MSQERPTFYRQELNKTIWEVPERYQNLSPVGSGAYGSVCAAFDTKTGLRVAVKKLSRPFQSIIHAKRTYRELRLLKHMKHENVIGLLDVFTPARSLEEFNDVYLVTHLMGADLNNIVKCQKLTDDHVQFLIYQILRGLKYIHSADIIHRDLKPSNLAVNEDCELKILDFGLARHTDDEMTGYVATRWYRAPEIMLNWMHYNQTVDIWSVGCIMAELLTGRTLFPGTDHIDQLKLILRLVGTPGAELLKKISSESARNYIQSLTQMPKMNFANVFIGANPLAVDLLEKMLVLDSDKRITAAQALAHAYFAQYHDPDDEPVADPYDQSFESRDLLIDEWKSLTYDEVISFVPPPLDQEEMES

## Cc1ccc(C(=O)NC(C)C)cc1-c1nc(N2CCN(C(c3ccccc3)c3ccccc3)CC2)nc2c1CNC(=O)N2c1c(F)cccc1F [Example 84, 3-{8-(2,6-difluorophenyl)-2-[4-(diphenylmethyl)-1-piperazinyl]-7-oxo-5,6,7,8-tetrahydropyrimido[4,5-d]pyrimidin-4-yl}-4-methyl-N-(1-methylethyl)benzamide trifluoroacetate]
Recombinant human p38α; [3]
  IC50: > 1780 nM
[1]; [4]
  IC50: > 100 nM

## CNCCNc1nc(-c2cc(C(=O)NCC3CC3)ccc2C)c2c(n1)N(c1c(F)cccc1F)C(=O)NC2 [Example 5, N-(Cyclopropylmethyl)-3-(8-(2,6-difluorophenyl)-2-{[2-(methylamino)ethyl]amino}-7-oxo-5,6,7,8-tetrahydropyrimido[4,5-d]pyrimidin-4-yl)-4-methylbenzamide]
Recombinant human p38α
  active in the assay (pIC50, p38α binding): active
[1]; [4]
  IC50: > 100 nM

## Cc1ccc(C(=O)Nc2ccc(C)c(-c3nc(S(C)(=O)=O)nc4c3CNC(=O)N4c3c(F)cccc3F)c2)cc1F [23(d), N-[3-[8-(2,6-difluorophenyl)-2-(methylsulfonyl)-7-oxo-5,6,7,8-tetrahydropyrimido[4,5-d]pyrimidin-4-yl]-4-methylphenyl]-3-fluoro-4-methylbenzamide]
Recombinant human p38α
  active in the assay (pIC50, p38α binding): active
[1]; [4]
  IC50: > 100 nM

## CCN(CC)C(=O)c1ccc(C)c(-c2nc(S(C)(=O)=O)nc3c2CNC(=O)N3c2c(F)cccc2F)c1 [156(b), 3-[8-(2,6-difluorophenyl)-2-(methylsulfonyl)-7-oxo-5,6,7,8-tetrahydropyrimido[4,5-d]pyrimidin-4-yl]-N,N-diethyl-4-methylbenzamide]
Recombinant human p38α
  active in the assay (pIC50, p38α binding): active
[1]; [4]
  IC50: > 100 nM

## CNC(=O)c1ccc(C)c(-c2nc(NC3CCN(C)CC3)nc3c2CNC(=O)N3c2c(F)cccc2F)c1 [Example 173, 3-{8-(2,6-difluorophenyl)-2-[(1-methyl-4-piperidinyl)amino]-7-oxo-5,6,7,8-tetrahydropyrimido[4,5-d]pyrimidin-4-yl}-N,4-dimethylbenzamide]
other
  melting point: 205 to 209 °C (dec.)

## CCCNC(=O)c1ccc(-c2nc(NCCN(C)C)nc3c2CNC(=O)N3c2c(F)cccc2F)cc1 [Example 98, 4-(8-(2,6-difluorophenyl)-2-{[2-(dimethylamino)ethyl]amino}-7-oxo-5,6,7,8-tetrahydropyrimido[4,5-d]pyrimidin-4-yl)-N-propylbenzamide trifluoroacetate]
Recombinant human p38α; [5]
  IC50: > 15800 nM
[1]; [4]
  IC50: > 100 nM

## Cc1ccc(C(=O)NCC2CC2)cc1-c1nc(N(C)CCN)nc2c1CNC(=O)N2c1c(F)cccc1F [4(c), 3-[2-[(2-Aminoethyl)(methyl)amino]-8-(2,6-difluorophenyl)-7-oxo-5,6,7,8-tetrahydropyrimido[4,5-d]pyrimidin-4-yl]-N-(cyclopropylmethyl)-4-methylbenzamide]
Recombinant human p38α
  active in the assay (pIC50, p38α binding): active
[1]; [4]
  IC50: > 100 nM

## CCN(CC)C(=O)c1ccc(C)c(-c2nc(SC)nc3c2CNC(=O)N3c2c(F)cccc2F)c1 [156(a)]
Recombinant human p38α
  active in the assay (pIC50, p38α binding): active
[1]; [4]
  IC50: > 100 nM

## Cc1ccc(C(=O)NCc2ccccc2)cc1-c1nc(NCCN(C)C(=O)OC(C)(C)C)nc2c1CNC(=O)N2c1c(F)cccc1F [19(a), 1,1-Dimethylethyl (2-{[8-(2,6-difluorophenyl)-4-(2-methyl-5-{[(phenylmethyl)amino]carbonyl}phenyl)-7-oxo-5,6,7,8-tetrahydropyrimido[4,5-d]pyrimidin-2-yl]amino}ethyl)methylcarbamate]
Recombinant human p38α; [5]
  IC50: > 15800 nM
[1]; [6]
  IC50: 40 to 100 nM

## CN(C)CCNc1nc(-c2ccc(C(=O)Nc3ccccc3)cc2)c2c(n1)N(c1c(F)cccc1F)C(=O)NC2 [Example 99, 4-(8-(2,6-difluorophenyl)-2-{[2-(dimethylamino)ethyl]amino}-7-oxo-5,6,7,8-tetrahydropyrimido[4,5-d]-pyrimidin-4-yl)-N-phenylbenzamide trifluoroacetate]
Recombinant human p38α; [3]
  IC50: ≥ 1260 nM
[1]; [4]
  IC50: > 100 nM

## Cc1ccc(C(=O)NC(C)C)cc1-c1nc(N2CCC(N3CCN(C)CC3)CC2)nc2c1CNC(=O)N2c1c(F)cccc1F [Example 72, 3-{8-(2,6-difluorophenyl)-2-[4-(4-methyl-1-piperazinyl)-1-piperidinyl]-7-oxo-5,6,7,8-tetrahydropyrimido[4,5-d]pyrimidin-4-yl}-4-methyl-N-(1-methylethyl)benzamide]
[1]; bound, screened at a different top concentration, read-out: IC50
  IC50: > 1 nM
[2]
  inhibition of neutrophilia: statistically significant inhibition of neutrophilia

## CN(C)CCNc1nc(-c2ccc(C(=O)N(C)C)cc2)c2c(n1)N(c1c(F)cccc1F)C(=O)NC2 [Example 101, 4-(8-(2,6-difluorophenyl)-2-{[2-(dimethylamino)ethyl]amino}-7-oxo-5,6,7,8-tetrahydropyrimido[4,5-d]pyrimidin-4-yl)-N,N-dimethylbenzamide trifluoroacetate]
Recombinant human p38α; [5]
  IC50: > 15800 nM
[1]; [4]
  IC50: > 100 nM

## Cc1ccc(C(=O)NCc2ccccc2)cc1-c1nc(S(C)(=O)=O)nc2c1CNC(=O)N2c1c(F)cccc1F [15(b), 3-[8-(2,6-Difluorophenyl)-2-(methylsulfonyl)-7-oxo-5,6,7,8-tetrahydropyrimido[4,5-d]pyrimidin-4-yl]-4-methyl-N-(phenylmethyl)benzamide]
Recombinant human p38α
  active in the assay (pIC50, p38α binding): active
[1]; [4]
  IC50: > 100 nM

## CSc1nc(-c2cc(C(=O)NCc3ccccc3)ccc2C)c2c(n1)N(c1c(F)cccc1F)C(=O)NC2 [15(a), 3-[8-(2,6-Difluorophenyl)-2-(methylthio)-7-oxo-5,6,7,8-tetrahydropyrimido[4,5-d]pyrimidin-4-yl]-4-methyl-N-(phenylmethyl)benzamide]
Recombinant human p38α
  active in the assay (pIC50, p38α binding): active
[1]; [6]
  IC50: 40 to 100 nM

## CN(C)CCNc1nc(-c2ccc(C(N)=O)cc2)c2c(n1)N(c1c(F)cccc1F)C(=O)NC2 [Example 103, 4-(8-(2,6-difluorophenyl)-2-{[2-(dimethylamino)ethyl]amino}-7-oxo-5,6,7,8-tetrahydropyrimido[4,5-d]pyrimidin-4-yl)benzamide trifluoroacetate]
Recombinant human p38α; [5]
  IC50: > 15800 nM
[1]; [4]
  IC50: > 100 nM

## Cc1ccc(C(=O)NCC2CC2)cc1-c1nc(NC2CCNCC2)nc2c1CNC(=O)N2c1c(F)cccc1F [6(b), N-(Cyclopropylmethyl)-3-[8-(2,6-difluorophenyl)-7-oxo-2-(4-piperidinylamino)-5,6,7,8-tetrahydropyrimido[4,5-d]pyrimidin-4-yl]-4-methylbenzamide]
Recombinant human p38α
  active in the assay (pIC50, p38α binding): active
[1]; [4]
  IC50: > 100 nM

## CN(C)CCNc1nc(-c2ccc(C(=O)Nc3nccs3)cc2)c2c(n1)N(c1c(F)cccc1F)C(=O)NC2 [96(b), 4-(8-(2,6-difluorophenyl)-2-{[2-(dimethylamino)ethyl]amino}-7-oxo-5,6,7,8-tetrahydropyrimido[4,5-d]pyrimidin-4-yl)-N-1,3-thiazol-2-ylbenzamide]
Recombinant human p38α
  active in the assay (pIC50, p38α binding): active
[1]; [4]
  IC50: > 100 nM

## CN(C)CCNc1nc(-c2ccc(C(=O)Nc3ccc(F)cc3)cc2)c2c(n1)N(c1c(F)cccc1F)C(=O)NC2 [Example 100, 4-(8-(2,6-difluorophenyl)-2-{[2-(dimethylamino)ethyl]amino}-7-oxo-5,6,7,8-tetrahydropyrimido[4,5-d]pyrimidin-4-yl)-N-(4-fluorophenyl)benzamide trifluoroacetate]
Recombinant human p38α; [5]
  IC50: > 15800 nM
[1]; [4]
  IC50: > 100 nM
